Data on 4 molecules can be found in US7598397B2, “Sulfonamide peri-substituted bicyclics for occlusive artery disease” (deCODE genetics ehf, priority 2004, dated 2009).

In general, IC50 refers to the concentration at which inhibition is half-maximal.

Read-outs that look alike come from different tables or passages of the source.

One assay relates to female C57BL/6 mice. Nature of the assay: pulmonary thromboembolism induced by arachidonic acid (platelet aggregation in vivo). Set-up: species or system mouse. Particulars: 100 mg/kg orally, 30 min before arachidonic acid 30 mg/kg i.v.; survival one hour after challenge. As for the experimental part:
The compounds of the invention also were assayed for their effects on platelet aggregation in vivo. An in vivo test of platelet activation is the induction of pulmonary thromboembolism by arachidonic acid, a precursor of prostaglandin formation. Inhibitors of prostaglandin synthesis, e.g., a COX-1 inhibitor such as asprin, are protective in the assay. For the pulmonary thromboembolism assay, concious female C57BL/6 mice were dosed orally with the test compounds and 30 min later thromboembolism was induced by injection of arachidonic acid into a tail vein at a dose of 30 mg per kg body weight. Survival was evaluated one hour after the challenge with arachidonic acid, as mice that survive for that length of time usually recovered fully. The arachidonic acid injection was given via a lateral tail vein in a mouse that had been warmed briefly under a heat lamp (dilation of the tail veins using heat facilitates placing the injection). An insulin syringe, 0.5 mL (from Becton Dickinson) was used for dosing. The dose volume given of both the test compound and the arachidonic acid was adjusted to the weight of the mouse (the dose volume p.o. for test compounds and i.v. for arachidonic acid solution was 10 μL and 5 μL per gram body weight, respectively). The survival rate for mice treated with arachidonic acid only was 1 per 10 mice evaluated or 10%. Survival rates for mice treated with test compounds (100 mg/kg, orally) and then arachidonic acid are shown below in Table 4.

The next assay concerns human platelets. Nature of the assay: platelet aggregation in vitro, human platelets. It is filed as cell-based. Particulars: Serum % 50, read-out: IC50 (nM) for Test Compounds. As for the experimental part: (§1) The compounds of the invention were assayed for their effects on platelet aggregation in vitro. In experiments with human platelets, whole blood was extracted from overnight-fasted human donors. Each experiment was performed with blood from single individual. In experiments with rodent platelets, whole blood was gathered from the heart of female mice or male rats under isofluran (Abbott) anaesthesia. Blood was pooled from two or ten individual rodents for each experiment in the case of rat and mouse experiments, respectively. In all cases, blood was collected into 3.8% sodium citrate tubes (Greiner Bio-one). Platelet-rich plasma (PRP) was obtained by centrifugation at 100×g for 15 min at 25° C. for humans, at 150×g for rats, or at 80×g for 10 min for mice. Platelet-poor plasma was obtained by centrifugation of the remaining blood at 2,400×g for 10 min at 25° C. After counting in an Autocounter (Model 920 EO, Swelab) platelets were diluted when necessary to the desired stock concentrations (200,000-300,000 platelets/μl) using 0.9% NaCl isotonic solution (Braun).
Platelet aggregation was determined by light absorbance using a platelet aggregometer with constant magnetic stirring (Model 490, Chronolog Cop., Havertown, Pa., USA), using a volume of 500 μl per cuvette. During the performance of the experiments, platelet solution was continually agitated by mild horizontal shaking. Collagen (Sigma) and PGE2 or sulprostone (Cayman Chemicals) were used as accelerants of platelet aggregation. Compounds used for this assay were dissolved and stored in a 100% DMSO solution. After dilution, the final DMSO concentration in the assay was lower than 0.1% v/v. […] Acceleration agents and EP3 test compounds were diluted in isotonic solution at the desired concentration. Sigmoidal non-lineal regression was used to calculate the concentration of test compound required to inhibit platelet aggregation by 50% (IC50). IC50 values of test compounds were calculated using GraphPad Prism 3.02 for Windows (GraphPad Software, San Diego Calif. USA). […]

The next assay concerns the target T1, prostanoid EP3 receptors (Homo sapiens, UniProt P43115).
T1 sequence (P43115 1-390): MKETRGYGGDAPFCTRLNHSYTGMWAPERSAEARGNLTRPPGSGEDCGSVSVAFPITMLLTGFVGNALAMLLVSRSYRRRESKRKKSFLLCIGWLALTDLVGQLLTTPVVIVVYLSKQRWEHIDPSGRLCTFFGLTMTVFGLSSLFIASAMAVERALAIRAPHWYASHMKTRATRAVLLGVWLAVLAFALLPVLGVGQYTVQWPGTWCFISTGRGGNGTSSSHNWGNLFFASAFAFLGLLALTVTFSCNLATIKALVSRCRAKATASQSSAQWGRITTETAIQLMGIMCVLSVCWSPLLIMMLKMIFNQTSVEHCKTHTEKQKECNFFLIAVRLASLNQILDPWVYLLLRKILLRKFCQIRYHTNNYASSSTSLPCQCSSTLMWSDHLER
Briefly: binding on prostanoid EP3 receptors (method of Abramovitz et al.). Particulars: read-out: Activity (EP3 receptor binding, IC50 class). Here is the method: The compounds of the invention were assayed for their binding on prostanoid EP3 receptors according to the method of Abramovitz et al. [Bioch. Biophys.

The next assay has as its system rat platelets. Nature of the assay: platelet aggregation in vitro, rat platelets. It is filed as cell-based. Particulars: Serum % 20, read-out: IC50 (nM) for Test Compounds. As for the experimental part:
as §1
Platelet aggregation was determined by light absorbance using a platelet aggregometer with constant magnetic stirring (Model 490, Chronolog Cop., Havertown, Pa., USA), using a volume of 500 μl per cuvette. […] IC50 values of test compounds were calculated using GraphPad Prism 3.02 for Windows (GraphPad Software, San Diego Calif. USA). […]

On to `O=C(COc1cccc2[nH]cc(S(=O)(=O)c3ccc4ccccc4c3)c12)NS(=O)(=O)c1cc(Cl)c(Cl)s1` [Compound P150], for which, in the assay on female C57BL/6 mice, the “No. mice surviving/Total no. of mice evalauted” value is 4/8 and the Survival rate came to 50%.

On to `Cc1cn(Cc2ccc3ccccc3c2)c2c(C=CC(=O)NS(=O)(=O)c3cc(Cl)c(Cl)s3)cc(F)cc12` [Compound P068], for which, in the assay on female C57BL/6 mice, the “No. mice surviving/Total no. of mice evalauted” value is 4/14 and the Survival rate was found to be 28%.

`CC12CCCC(C=CC(=O)NS(=O)(=O)c3cc(Cl)c(Cl)s3)=C1N(Cc1ccc3ccccc3c1)C(=O)C2` (stereo not shown) [Compound P253]: the IC50 was 15.9 nM in the assay on human platelets (agonist Sulprostone (100 nM) and collagen (0.125 ug.mL)); < 1000 nM on prostanoid EP3 receptors.

On to `Cc1cn(Cc2ccc(Cl)cc2Cl)c2c(C=CC(=O)NS(=O)(=O)c3cc(Cl)c(Cl)s3)cc(F)cc12` [Compound P067], for which the 50% inhibitory concentration (IC50) with human platelets (Homo sapiens, agonist PGE2 (940 nM) and collagen (0.125 ug.mL)) is 5.15 nM; in the assay on human platelets (Homo sapiens, agonist Sulprostone (100 nM) and collagen (0.125 ug.mL)), 9.21 nM; at prostanoid EP3 receptors, < 1000 nM; in the assay with rat platelets (agonist PGE2 (940 nM) and collagen (2.0 ug.mL)), 304 nM; in the assay with rat platelets (agonist Sulprostone (100 nM) and collagen (2.0 ug.mL)) it was 87.8 nM. In addition, the “No. mice surviving/Total no. of mice evalauted” value in the assay on female C57BL/6 mice was 15/22. In the assay with female C57BL/6 mice, this molecule yielded a Survival rate of 68%.
